Literature values in patent publication US20030139355A1, “Medicine for orthopaedic surgical application and a treating method using thereof” (priority 2001, published 2003).

Columns and labels:
selectins = details: in vitro; J. Biol. Chem. 1994
[1] = tested on: ischemia reperfusion disorder in liver; details: literature reports

CC1(C)[C@@H](O[C@H]2O[C@H](C(=O)O)[C@@H](O)[C@H](O)[C@H]2O[C@@H]2O[C@H](C(=O)O)[C@@H](O)[C@H](O)[C@H]2O)CC[C@]2(C)[C@H]3C(=O)C=C4[C@@H]5C[C@@](C)(C(=O)O)CC[C@]5(C)CC[C@@]4(C)[C@]3(C)CC[C@@H]12 [glycyrrhizin]
Binding between Sialyl-Lewis X and selectins (selectins): prevents binding between Sialyl-Lewis X and selectins | Inhibitory effects on ischemia reperfusion disorder in liver [1]: effectively exhibits inhibitory effects
